Earlier results, collected in patent US20230104323A1, “FORMULATIONS OF POLYBASIC DRUGS TO REDUCE MULTI-ORGAN TOXICITY” (priority 2019, published 2023).

Tested on: healthy subjects
Conditions: plazomicin injection

For CN[C@@H]1[C@@H](O)[C@@H](O[C@@H]2[C@@H](O)[C@H](O[C@H]3OC(CNCCO)=CC[C@H]3N)[C@@H](N)C[C@H]2NC(=O)[C@@H](O)CCN)OC[C@]1(C)O [plazomicin], the “Nephrotoxicity and ototoxicity in humans” value is given as “no nephrotoxicity and ototoxicity”.
